# Laboratory results reported in publication PMC9552147 (Nature Communications, 2022).
# Where “and” joins values, the source holds several entries; their conditions need not be identical. Equal entries are not always repeated.
# System: M. tuberculosis resistant mutant (lysS S491 insertion)
# Type: cell-based, Mycobacterium tuberculosis
Compound,Mutant (S491)MIC,"Mutant (S491)MIC, Ave [µM]",fold resistance of the resistant mutant strain compared to wild-type H37Rv (MIC)
Nc1cc2c(c(F)n1)C(=O)N(C1CCCCC1)C2 [Compound 2],0.11 µM and 0.095 µM,0.10,–
NNC(=O)c1ccncc1 [isoniazid],–,–,equivalent sensitivity
